Key:
Experiment in all cases: relative viability (nuclei count vs DMSO), 5 days (fraction); higher = more cells survive
[1] = compound: CC1=C(C(=O)N2C=CSC2=N1)CCN3CCC(=C(C4=CC=CC=C4)C5=CC=C(C=C5)F)CC3 + Cc1nc(NC(=O)N2CCC[C@H]2C(N)=O)sc1-c1ccnc(C(C)(C)C(F)(F)F)c1 [Alpelisib] (partner 2 µM)
Method in brief: (§1)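 For relative viability, nuclei counts in treated wells were divided by those in vehicle wells. Lung cancer cell lines had been pin-tool dosed in 1536-well plates the day after seeding and cultured for 5 days, then fixed and stained in one step (final 0.05% Triton X-100, 1% formaldehyde, 1 ug/ml Hoechst) and imaged at 4×. Doses were one drug alone or a fixed anchor-drug dose plus five library-drug doses (not always all listed) in √10 steps, and values are duplicate-plate medians.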

[2] = compound: CC1=C(C(=O)N2C=CSC2=N1)CCN3CCC(=C(C4=CC=CC=C4)C5=CC=C(C=C5)F)CC3 + CC(C)C[C@H](NC(=O)[C@H](Cc1ccccc1)NC(=O)c1cnccn1)B(O)O [Bortezomib] (partner 0.002 µM)
Method in brief: as §1

[3] = compound: CC1=C(C(=O)N2C=CSC2=N1)CCN3CCC(=C(C4=CC=CC=C4)C5=CC=C(C=C5)F)CC3 + O=C(c1cc(Cc2n[nH]c(=O)c3ccccc23)ccc1F)N1CCN(C(=O)C2CC2)CC1 [Olaparib] (partner 8 µM)
Method in brief: as §1

[4] = compound: CC1=C(C(=O)N2C=CSC2=N1)CCN3CCC(=C(C4=CC=CC=C4)C5=CC=C(C=C5)F)CC3 + Nc1nc2[nH]cc(CCc3ccc(C(=O)N[C@@H](CCC(=O)O)C(=O)O)cc3)c2c(=O)[nH]1 [Pemetrexed] (partner 0.2 µM)
Method in brief: as §1

| Cell Line | relative viability ([1]; first compound 0.253 µM) | relative viability ([1]; first compound 0.8 µM) | relative viability ([1]; first compound 2.53 µM) | relative viability ([1]; first compound 8 µM) | relative viability ([2]; first compound 0.253 µM) | relative viability ([2]; first compound 0.8 µM) | relative viability ([2]; first compound 2.53 µM) | relative viability ([2]; first compound 8 µM) | relative viability ([3]; first compound 0.08 µM) | relative viability ([3]; first compound 0.253 µM) | relative viability ([3]; first compound 0.8 µM) | relative viability ([3]; first compound 2.53 µM) | relative viability ([3]; first compound 8 µM) | relative viability ([4]; first compound 0.08 µM) | relative viability ([4]; first compound 0.253 µM) | relative viability ([4]; first compound 0.8 µM) | relative viability ([4]; first compound 2.53 µM) | relative viability ([4]; first compound 8 µM) | relative viability ([1]; first compound 0.08 µM) | relative viability ([2]; first compound 0.08 µM) |
| --- | --- | --- | --- | --- | --- | --- | --- | --- | --- | --- | --- | --- | --- | --- | --- | --- | --- | --- | --- | --- |
| NCI-H1437 | 1.01 | 1.09 | 1.21 | 0.729 | 0.398 | 0.476 | 0.484 | 0.351 | 0.658 | 0.692 | 0.66 | 0.692 | 0.51 | 0.338 | 0.371 | 0.323 | 0.35 | 0.235 |  |  |
| NCI-H1651 | 0.972 | 1.03 | 0.88 | 0.785 | 0.874 | 0.908 | 1.01 | 0.809 | 0.165 | 0.176 | 0.189 | 0.217 | 0.183 | 0.756 | 0.611 | 0.545 | 0.644 | 0.574 | 1.19 | 0.858 |
| NCI-H1666 | 1.02 | 0.902 | 1.06 | 0.794 | 0.762 | 0.924 | 0.815 | 0.695 | 0.698 | 0.756 | 0.684 | 0.751 | 0.764 | 0.838 | 0.853 | 0.884 | 0.89 | 0.754 | 0.969 | 0.83 |
| NCI-H1734 | 0.648 | 0.718 | 0.713 | 0.422 | 0.715 | 0.915 | 1.12 | 0.447 | 0.554 | 0.526 | 0.624 | 0.767 | 0.396 | 0.487 | 0.452 | 0.391 | 0.424 | 0.399 | 0.727 | 0.873 |
| NCI-H1755 | 0.856 | 0.994 | 1.07 | 0.69 | 0.9 | 0.962 | 1.11 | 0.44 | 0.892 | 0.995 | 0.939 | 0.934 | 0.719 | 0.456 | 0.437 | 0.41 | 0.405 | 0.38 | 0.807 | 0.948 |
| NCI-H1792 | 0.6 | 0.722 | 0.611 | 0.545 | 0.614 | 0.976 | 0.77 | 0.438 | 0.318 | 0.357 | 0.631 | 0.603 | 0.348 | 0.523 | 0.543 | 0.606 | 0.626 | 0.293 | 0.679 | 0.742 |
| NCI-H1915 | 1.11 | 1.07 | 1.06 | 0.782 | 0.864 | 1.1 | 0.971 | 0.472 | 0.254 | 0.272 | 0.284 | 0.238 | 0.223 | 0.576 | 0.44 | 0.493 | 0.517 | 0.44 | 1.1 | 1.02 |
| NCI-H1975 | 0.616 | 0.656 | 0.667 | 0.451 | 0.329 | 0.368 | 0.434 | 0.362 | 0.674 | 0.714 | 0.899 | 0.852 | 0.433 | 0.292 | 0.265 | 0.312 | 0.291 | 0.236 | 0.674 | 0.35 |

From the supplement of paper PMC10307832
